Data taken from US12599614B2, “Methods and pharmaceutical compositions for the treatment and prophylaxis of microbial infectious diseases and associated inflammatory disorders and for the treatment and prophylaxis of aging and associated diseases” (MD VAULT LLC, priority 2020, dated 2026).

How the values were obtained:
[1] = tested on: 1 year-old aged diabetic mice; assay: Tissue regeneration in 1 year-old aged diabetic mice, oral gavage; type: in vivo; conditions: single agent: X alone 20 mg/kg or Y alone 4 mg/kg, daily oral gavage, 6 weeks
[2] = tested on: adult female rats (PCOS model); assay: Estrus cycles in DHEA/diet PCOS rat model; type: in vivo; conditions: daily oral gavage over 6 weeks; DHEA 60 mg/kg sc and high fat-high sugar-high cholesterol diet
Description: Daily oral gavage of the drug combination X and Y, relative to X alone or Y alone or the vehicle over 6 weeks, led to restoration of estrus cycles in adult female rats treated with subcutaneous dehydroepiandrosterone (DHEA; 60 mg/kg body weight) and fed with a high fat-high sugar-high cholesterol diet ad libitum to model premature ovarian aging in polycystic ovary syndrome (PCOS).

[3] = tested on: 1 year-old aged mice treated with intratracheal bleomycin; assay: Bleomycin lung fibrosis in aged mice (COPD/IPF model); type: in vivo; conditions: daily oral gavage over 3 weeks; intratracheal bleomycin 3 mg/kg
Description: Daily oral gavage of the drug combination X and Y, relative to X alone or Y alone or the vehicle over 3 weeks, led to decreases in aging-associated lung fibrosis in 1 year-old aged mice treated with intratracheal bleomycin (3 mg/kg in 50 ul phosphate buffered saline or PBS) to model chronic obstructive pulmonary disease (COPD) and idiopathic pulmonary fibrosis (IPF).

[4] = tested on: primary human skeletal muscle cells; assay: Metabolism and gene pathway profiling of muscle cells; type: cell-based; conditions: single agent: X alone 100 mg/L or Y alone 2 mg/L
Description: Calorie restriction is known to ameliorate the effects of aging, by altering cellular bioenergetic stress and promoting mitochondrial activity, the unfolded protein response (UPR), the secretion of beneficial cytokines, and an increase in stem cell regeneration. To test how the drug combination X and Y mimics the effects of calorie restriction (CR), we profiled the metabolism of primary human skeletal muscle cells at passage 15 treated with X (100 mg/L) and Y (2 mg/L), compared to X alone (100 mg/L) or Y alone (2 mg/L).

2-year-old aged mice = assay: Senescence biomarkers in tissues of aged mice; type: in vivo; conditions: aged liver, muscle and skin tissues; ip 20 mg/kg X and/or 4 mg/kg Y daily for 30 days; vs DMSO vehicle; P<0.01
Description: To test if the drugs X and Y may reduce senescence in the tissues of aged mice, we intraperitoneally injected 2-year-old aged mice (n=10/group) with 20 mg/kg of X, or 4 mg/kg of Y, or both 20 mg/kg of X and 4 mg/kg of Y, relative to the DMSO vehicle control, on a daily basis for 30 days. Staining of liver, muscle and skin tissue sections for SA-β-gal activity was performed using the Senescence β-Galactosidase Staining Kit (Cell Signaling Technology) according to manufacturer's protocols. Protein expression of p16INK4A and H3K9me3 were evaluated by densitometric quantification of Westem blots of the liver, muscle and skin tissue samples.

Row | SMILES | beneficial anti-aging effects seen with X and Y (liver, β islet, hair, wound, muscle regeneration, body mass) [1] | estrus cycles (vaginal smear analysis) [2] | lung fibrosis (% fibrotic area, Masson trichrome staining, ImageJ) [3] | beneficial anti-aging effects seen with X and Y (ATP, acetyl-CoA, acetylation, Pink1, mitochondrial protein and DNA, UPR, ROS, cytokine and stem cell pathways) [4] | SA-β-gal activity staining (senescence biomarker) (2-year-old aged mice)
1 | CC(=O)Oc1ccccc1C(=O)O [X, 2-acetoxybenzoic acid] | None of these beneficial anti-aging effects were observed | all of the rats were frozen in either the estrus or proestrus stages | None of these beneficial anti-aging effects were observed | None of these beneficial anti-aging effects were observed | but not X alone or Y alone
2 | COc1ccc(CN2CCNCC2)c(OC)c1OC [Y, 1-[(2,3,4-trimethoxyphenyl)methyl]piperazine] | None of these beneficial anti-aging effects were observed | all of the rats were frozen in either the estrus or proestrus stages | None of these beneficial anti-aging effects were observed | None of these beneficial anti-aging effects were observed | but not X alone or Y alone
